Reference: US5604213A, “17-substituted steroids useful in cancer treatment” (priority 1992, dated 1997)

How the values were obtained:
17α-hydroxylase = target: T1, 17α-hydroxylase (Homo sapiens, UniProt P05093); test: Determination of 17α-hydroxylase (human testicular microsomes, 3H-progesterone); format: biochemical; settings: for concentration required to achieve 50% inhibition of hydroxylase, versus the 3-pyridyl (in words): compared with 3-pyridyl
T1 construct: Human testes were obtained from previously untreated patients undergoing orchidectomy for prostatic cancer; from tissue; host or cells: human testes, microsomes
T1 sequence (P05093 1-508): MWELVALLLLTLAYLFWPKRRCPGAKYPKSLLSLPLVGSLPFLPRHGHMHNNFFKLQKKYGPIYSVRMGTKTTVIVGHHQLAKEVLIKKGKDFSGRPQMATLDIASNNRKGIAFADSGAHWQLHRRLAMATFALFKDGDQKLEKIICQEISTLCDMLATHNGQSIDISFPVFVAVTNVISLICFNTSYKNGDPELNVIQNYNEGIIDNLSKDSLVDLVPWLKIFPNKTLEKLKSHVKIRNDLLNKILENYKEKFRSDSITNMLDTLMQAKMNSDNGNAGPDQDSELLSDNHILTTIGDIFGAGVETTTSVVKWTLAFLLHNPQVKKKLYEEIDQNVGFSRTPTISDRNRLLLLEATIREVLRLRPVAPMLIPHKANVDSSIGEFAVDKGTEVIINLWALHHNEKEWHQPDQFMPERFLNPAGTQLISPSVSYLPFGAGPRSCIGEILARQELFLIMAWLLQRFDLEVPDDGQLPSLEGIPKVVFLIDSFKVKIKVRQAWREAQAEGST
Experimental: Human testes were obtained from previously untreated patients undergoing orchidectomy for prostatic cancer. The testes were decapsulated and stored in liquid nitrogen until use. A microsomal preparation was prepared essentially as described by S. E. Barrie et al., J. Steroid Biochem. 6, 1191-5, (1989). The material was then thawed, finely chopped, and homogenised in 0.25M sucrose (5 ml/g wet weight) using a Potter homogeniser. The homogenate was centrifuged at 12000 g for 30 min, and then the microsomes were pelleted by spinning the supernatant at 100,000 g for 1 hr. The pellet was washed by being resuspended in 0.25M sucrose and repelleted. The microsomal pellet was then resuspended in 50 mM sodium phosphate pH 7.4/glycerol (3/1 v/v) and stored in aliquots in liquid nitrogen.
(§2) The basic assay mixture was EDTA (0.2 mM), dithiothreitol (DTT; 0.1 mM), NADPH (0.25 mM), glucose 6-phosphate dehydrogenase (G6PDH; 6.25 μg/ml), MgCl2 (1 mM), glucose 6-phosphate (G6P; 10 mM) and the substrate, 3H-progesterone (3 μM) in sodium phosphate (50 mm), pH 7.4. The compounds under test were dissolved in 50% DMSO and the final concentrations of ethanol and DMSO were 1% each. The assay reaction was carded out for 1 hour and was terminated by the addition of 2 vols. of methanol-acetonitrile (2:1) containing approx. 100 μM unlabelled progesterone, 17α-hydroxyprogesterone, androstenedione, testosterone, and 16α-hydroxyprogesterone.
The separation of the steroids by HPLC was carried out using an "Uptight" guard column packed with 40-63 μm Nucleosil C18 and a 10 cm main column packed with 5 μm Nucleosil C18 and 60% methanol as eluant. The radioactivity in the peaks of interest was monitored on-line by mixing the HPLC effluent 1:1 with Ecoscint A (National Diagnostics) scintillation fluid, containing 25% acetonitrile, and passing the mixture through a Berthold LB506C radiochemical monitor. The hydroxylase activity was measured as the production of 17α-hydroxyprogesterone, androstenedione and testosterone.
The enzyme activity was measured in the presence of at least 4 concentrations of each compound. The data were for the 4-pyridyl and 2-picolyl compounds of Table 1 fitted by linear regression to the Dixon equation (M. Dixon, E.C. Webb, Enzymes, 2nd ed., Academic Press, New York, 1964). Data for all the other compounds were fitted by non-linear regression to the median effect equation of Chou, J. Theoret.

C17-C20 lyase = target: T2, C17-C20 lyase (Homo sapiens, UniProt P05093); test: Determination of C17-C20 lyase (human testicular microsomes, 3H-17α-hydroxyprogesterone); format: biochemical; settings: for concentration required to achieve 50% inhibition of lyase, versus the 3-pyridyl (in words): compared with 3-pyridyl
T2 construct: Human testes were obtained from previously untreated patients undergoing orchidectomy for prostatic cancer; from tissue; host or cells: human testes, microsomes
T2 sequence (P05093 1-508): T1 sequence (P05093 1-508)
Experimental: The testes were decapsulated and stored in liquid nitrogen until use. […] The material was then thawed, finely chopped, and homogenised in 0.25M sucrose (5 ml/g wet weight) using a Potter homogeniser. The homogenate was centrifuged at 12000 g for 30 min, and then the microsomes were pelleted by spinning the supernatant at 100,000 g for 1 hr. The pellet was washed by being resuspended in 0.25M sucrose and repelleted. The microsomal pellet was then resuspended in 50 mM sodium phosphate pH 7.4/glycerol (3/1 v/v) and stored in aliquots in liquid nitrogen.
as §2
The HPLC separation used for the lyase involved a mini-re-column "Uptight Guard Column" packed with PELL-ODS (pellicular octadecyl silica) and a 10 cm. main column "Apex C18" column packed with 5μ APEX-CAT silica.
The eluant was 38:12:50 methanol:acetonitrile:water flowing at 1 ml/min. The effluent was mixed 1:1 with Ecoscint A containing 5% methanol and 5% acetonitrile and the radioactivity was measured directly by a Berthold LB506C radiochemical detector. The lyase activity was measured as the production of androstenedione and testosterone.
The enzyme activity was measured in the presence of at least 4 concentrations of each compound.

[1] = design: species or system mice; settings: mouse, in vivo; for post mortem examination: appearance of organs / post mortem examination: deposits: ip
Experimental: (§1) Male HWT mice, 12 weeks old, were treated daily for 2 weeks, with 5 animals per treatment group. The test compounds were the compound of Examples 1 and 4 (as representative of compounds of the invention having the pregenolone-like and progesterone-like skeletons respectively). Ketoconazole was also tested at three different doses. The test compounds were made up in 5% benzyl alcohol, 95% safflower oil, and were given i.p. In addition to an untreated control group of animals, there was also a solvent control group which received the same volume of liquid as the test group (5 ml/kg) but no test compound. All animals were sacrificed 24 hours after the last injection. Blood was collected by cardiac puncture into heparinized tubes, and the plasma used for RIA (radio immunoassay) of testosterone and luteinising hormone. The following organs were removed and weighed: adrenals, prostate, seminal vesicles, testes, kidneys. There was no significant body weight loss in any group of mice during the experiments.
In Ketoconazole-treated animals, adhesions were found in 2/5,2/5,4/5 of the low/middle/top dose groups. […] The livers were brown in the middle/top dose groups.

luteinising hormone = test: In vivo endocrine test in mice: plasma luteinising hormone (RIA); settings: 2 weeks
Experimental: as §1

Male HWT mice = test: In vivo organ weight test in mice; settings: for Mean weight ± standard error, Adrenals / Mean weight ± standard error, Kidneys / Mean weight ± standard error, Prostate / Mean weight ± standard error, Seminal Vesicles / Mean weight ± standard error, Testes: 2 weeks
Experimental: as §1

aromatase = target: T3, aromatase (Homo sapiens, UniProt P11511); format: biochemical; settings: human placental microsomes
T3 construct: using human placental microsomes; from tissue; host or cells: human placenta, microsomes
T3 sequence (P11511 1-503): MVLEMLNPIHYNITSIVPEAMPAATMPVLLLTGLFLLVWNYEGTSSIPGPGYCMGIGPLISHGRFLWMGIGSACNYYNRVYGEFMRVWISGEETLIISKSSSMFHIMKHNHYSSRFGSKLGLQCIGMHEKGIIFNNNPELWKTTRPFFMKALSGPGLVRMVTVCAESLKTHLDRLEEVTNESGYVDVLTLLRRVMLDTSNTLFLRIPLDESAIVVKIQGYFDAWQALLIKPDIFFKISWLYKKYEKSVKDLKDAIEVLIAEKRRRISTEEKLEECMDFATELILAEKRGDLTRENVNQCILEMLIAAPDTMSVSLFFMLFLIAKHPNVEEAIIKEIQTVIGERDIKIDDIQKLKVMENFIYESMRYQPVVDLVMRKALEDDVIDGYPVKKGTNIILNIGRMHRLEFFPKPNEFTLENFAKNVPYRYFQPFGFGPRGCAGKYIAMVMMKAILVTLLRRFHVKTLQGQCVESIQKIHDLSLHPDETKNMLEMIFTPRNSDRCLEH
Experimental: Aromatase activity was determined by the method of A. B. Foster et al., J. Med. Chem. 26, 50-54 (1983), using human placental microsomes.

testosterone = test: In vivo endocrine test in mice: plasma testosterone (RIA); settings: 2 weeks
Experimental: Male HWT mice, 12 weeks old, were treated daily for 2 weeks, with 5 animals per treatment group. […] The test compounds were made up in 5% benzyl alcohol, 95% safflower oil, and were given i.p. In addition to an untreated control group of animals, there was also a solvent control group which received the same volume of liquid as the test group (5 ml/kg) but no test compound. All animals were sacrificed 24 hours after the last injection. Blood was collected by cardiac puncture into heparinized tubes, and the plasma used for RIA (radio immunoassay) of testosterone and luteinising hormone.

[2] = substrate: C[C@]12CCC(=O)C=C1CC[C@@H]1[C@@H]2CC[C@]2(C)C(=O)CC[C@@H]12; test: cells, lysate or membranes named; settings: other: human placental microsomes used

Molecule: C[C@]12CC[C@H](O)CC1=CC[C@@H]1[C@@H]2CC[C@]2(C)C(Cc3ccccn3)=CC[C@@H]12 [Example 2-picolyl]
- concentration required to achieve 50% inhibition of hydroxylase, versus the 3-pyridyl (in words) (17α-hydroxylase): far greater
- concentration required to achieve 50% inhibition of lyase, versus the 3-pyridyl (in words) (C17-C20 lyase): far greater

Molecule: CC(=O)N1CCN(c2ccc(OCC3COC(Cn4ccnc4)(c4ccc(Cl)cc4Cl)O3)cc2)CC1 (stereo not shown) [Ketoconazole]
- appearance of livers [1]: brown
- gut and peritoneal wall, appearance [1]: seemed to be stuck to the seminal vesicles
- LH (Mean ± standard error) (luteinising hormone; 0.1 mmol/kg/day i.p.): 0.39 ± 0.14 ng/mL
- LH (Mean ± standard error) (luteinising hormone; 0.225 mmol/kg/day i.p.): 0.75 ± 0.02 ng/mL
- LH (Mean ± standard error) (luteinising hormone; 0.5 mmol/kg/day i.p.): 0.76 ± 0.03 ng/mL
- Mean weight ± standard error, Adrenals (Male HWT mice; 0.01 mmol/kg/day i.p.): 4.8 ± 0.2 mg
- Mean weight ± standard error, Kidneys (Male HWT mice; 0.01 mmol/kg/day i.p.): 637 ± 22 mg
- Mean weight ± standard error, Prostate (Male HWT mice; 0.01 mmol/kg/day i.p.): 9.1 ± 0.8 mg
- Mean weight ± standard error, Seminal Vesicles (Male HWT mice; 0.01 mmol/kg/day i.p.): 235 ± 18 mg
- Mean weight ± standard error, Testes (Male HWT mice; 0.01 mmol/kg/day i.p.): 141 ± 5 mg
- Mean weight ± standard error, Adrenals (Male HWT mice; 0.225 mmol/kg/day i.p.): 6.1 ± 0.3 mg
- Mean weight ± standard error, Kidneys (Male HWT mice; 0.225 mmol/kg/day i.p.): 574 ± 23 mg
- Mean weight ± standard error, Prostate (Male HWT mice; 0.225 mmol/kg/day i.p.): 10.8 mg
- Mean weight ± standard error, Seminal Vesicles (Male HWT mice; 0.225 mmol/kg/day i.p.): 171 ± 5 mg
- Mean weight ± standard error, Testes (Male HWT mice; 0.225 mmol/kg/day i.p.): 127 ± 7 mg
- Mean weight ± standard error, Adrenals (Male HWT mice; 0.5 mmol/kg/day i.p.): 6.9 ± 0.3 mg
- Mean weight ± standard error, Kidneys (Male HWT mice; 0.5 mmol/kg/day i.p.): 710 ± 30 mg
- Mean weight ± standard error, Prostate (Male HWT mice; 0.5 mmol/kg/day i.p.): 9.3 ± 0.9 mg
- Mean weight ± standard error, Seminal Vesicles (Male HWT mice; 0.5 mmol/kg/day i.p.): 179 ± 20 mg
- Mean weight ± standard error, Testes (Male HWT mice; 0.5 mmol/kg/day i.p.): 133 ± 6 mg
- effect on adrenal weight (Male HWT mice; two highest doses): increase in adrenal weight

Molecule: C[C@]12CC[C@H](O)CC1=CC[C@@H]1[C@@H]2CC[C@]2(C)C(c3ccccn3)=CC[C@@H]12 [Example 2-Pyridyl]
- concentration required to achieve 50% inhibition of hydroxylase, versus the 3-pyridyl (in words) (17α-hydroxylase): far greater
- concentration required to achieve 50% inhibition of lyase, versus the 3-pyridyl (in words) (C17-C20 lyase): far greater

Molecule: CC12CCC(Oc3c(F)c(F)c(C(F)(F)F)c(F)c3F)CC1=CCC1C2CCC2(C)C(c3cccnc3)=CCC12 (stereo not shown)
- inhibition of hydroxylase (in words) (17α-hydroxylase): very poor inhibitor
- inhibition of lyase (in words) (C17-C20 lyase): very poor inhibitor

Molecule: CC(=O)O[C@H]1CC[C@@]2(C)C(=CC[C@@H]3[C@@H]2CC[C@]2(C)C(c4cccnc4)=CC[C@@H]32)C1 [Ex. 1, 3β-Acetoxy-17-(3-pyridyl)androsta-5,16-diene]
- post mortem examination: appearance of organs [1]: all organs looked normal
- post mortem examination: deposits [1]: oil/white deposits i.p.
- LH (Mean ± standard error) (luteinising hormone; 0.02 mmol/kg/day i.p.): 3.4 ± 0.5 ng/mL
- Mean weight ± standard error, Adrenals (Male HWT mice; 0.02 mmol/kg/day i.p.): 4.3 ± 0.2 mg
- Mean weight ± standard error, Kidneys (Male HWT mice; 0.02 mmol/kg/day i.p.): 604 ± 24 mg
- Mean weight ± standard error, Adrenals (Male HWT mice; 0.1 mmol/kg/day i.p.): 4.0 ± 0.2 mg
- Mean weight ± standard error, Kidneys (Male HWT mice; 0.1 mmol/kg/day i.p.): 500 ± 8 mg
- Mean weight ± standard error, Adrenals (Male HWT mice; 0.5 mmol/kg/day i.p.): 4.7 ± 0.2 mg
- Mean weight ± standard error, Kidneys (Male HWT mice; 0.5 mmol/kg/day i.p.): 449 ± 12 mg

Molecule: C[C@]12CC[C@H](O)CC1=CC[C@@H]1[C@@H]2CC[C@]2(C)C(c3cccnc3)=CC[C@@H]12 [Ex. 2, 17-(3-Pyridyl)androsta-5,16-dien-3β-ol]
- IC50 (aromatase): > 20000 nM

Molecule: C[C@]12CC[C@H](O)CC1=CC[C@@H]1[C@@H]2CC[C@]2(C)C(c3ccncc3)=CC[C@@H]12 [Example 4-pyridyl]
- concentration required to achieve 50% inhibition of hydroxylase, versus the 3-pyridyl (in words) (17α-hydroxylase): far greater
- concentration required to achieve 50% inhibition of lyase, versus the 3-pyridyl (in words) (C17-C20 lyase): far greater

Molecule: C[C@]12CCC(=O)C=C1CC[C@@H]1[C@@H]2CC[C@]2(C)C(c3cccnc3)=CC[C@@H]12 [Ex. 4, 17-(3-Pyridyl)androsta-4,16-dien-3-one]
- post mortem examination: appearance of organs [1]: all organs looked normal
- post mortem examination: deposits [1]: white deposits throughout the abdomen
- Testosterone (Mean ± standard error) (testosterone; 0.02 mmol/kg/day i.p.): 4.5 ± 0.3 nM
- Testosterone (Mean ± standard error) (testosterone; 0.1 mmol/kg/day i.p.): 3.5 ± 1.0 nM
- Testosterone (Mean ± standard error) (testosterone; 0.5 mmol/kg/day i.p.): 0.4 ± 0.1 nM
- Mean weight ± standard error, Adrenals (Male HWT mice; 0.02 mmol/kg/day i.p.): 4.7 ± 0.2 mg
- Mean weight ± standard error, Seminal Vesicles (Male HWT mice; 0.02 mmol/kg/day i.p.): 108 ± 4 mg
- Mean weight ± standard error, Adrenals (Male HWT mice; 0.1 mmol/kg/day i.p.): 4.6 ± 0.4 mg
- Mean weight ± standard error, Seminal Vesicles (Male HWT mice; 0.1 mmol/kg/day i.p.): 61 ± 9 mg
- Mean weight ± standard error, Adrenals (Male HWT mice; 0.5 mmol/kg/day i.p.): 4.9 ± 0.1 mg
- Mean weight ± standard error, Seminal Vesicles (Male HWT mice; 0.5 mmol/kg/day i.p.): 25 ± 1 mg

Molecule: C[C@]12CCC(=O)C[C@@H]1CC[C@@H]1[C@@H]2CC[C@]2(C)C(c3cccnc3)=CC[C@@H]12 [Ex. 9, 17-(3-Pyridyl)-5α-androst-16-en-3-one]
- IC50 (17α-hydroxylase; approx. 4 nM enzyme, A and B ring variations, read-out: IC50 Hydroxylase (Table 2(a))): 4.7 nM

B1: aromatase (Homo sapiens) (protein)
chain: T3 sequence (P11511 1-503)
- Km [2]: 0.039 µM
